Laboratory results published in patent publication US9179674B2, “Macrocyclic picolinamide compounds with fungicidal activity” (DOW AGROSCIENCES LLC, priority 2013, dated 2015).

Columns and labels:
Uncinula necator = assay: Grape Powdery Mildew fungicidal activity (UNCINE); assay type: in vivo; details: Erysiphe necator, 24 h, 1 Day Protectant, read-out: Disease Control UNCINE 1DP
Description: Technical grades of materials were dissolved in acetone, which were then mixed with nine volumes of water containing 110 ppm Triton X-100. The fungicide solutions were applied onto wheat seedlings using an automated booth sprayer to run-off. All sprayed plants were allowed to air dry prior to further handling. All fungicides were evaluated using the aforementioned method for their activity vs. all target diseases. Wheat leaf blotch and brown rust activity were also evaluated using track spray applications, in which case the fungicides were formulated as EC formulations, containing 0.1% Trycol 5941 in the spray solutions. Wheat plants (variety Yuma) were grown from seed in a greenhouse in 50% mineral soil/50% soil-less Metro mix until the first leaf was fully emerged, with 7-10 seedlings per pot. These plants were inoculated with an aqueous spore suspension of Septoria tritici either prior to or after fungicide treatments. After inoculation the plants were kept in 100% relative humidity (one day in a dark dew chamber followed by two to three days in a lighted dew chamber at 20° C.) to permit spores to germinate and infect the leaf. The plants were then transferred to a greenhouse set at 20° C. for disease to develop. When disease symptoms were fully expressed on the 1st leaves of untreated plants, infection levels were assessed on a scale of 0 to 100 percent disease severity. Percent disease control was calculated using the ratio of disease severity on treated plants relative to untreated plants. Evaluation of Fungicidal Activity: Grape Powdery Mildew (Uncinula necator; Bayer code […]) Grape seedlings (variety Carignane) were grown in soil-less Metro mix, with one plant per pot, and used in the test when approximately one month old. Plants were inoculated 24 hr after fungicide treatment by shaking spores from infected leaves over test plants. Plants were maintained in a greenhouse set at 20° C. until disease was fully developed. Fungicide formulation, application and disease assessment on the sprayed leaves followed the procedures as described in the Example A.

Venturia inaequalis = assay: Apple Scab fungicidal activity (VENTIN); assay type: in vivo; details: 100 ppm, 1 Day Protectant
Description: Technical grades of materials were dissolved in acetone, which were then mixed with nine volumes of water containing 110 ppm Triton X-100. The fungicide solutions were applied onto wheat seedlings using an automated booth sprayer to run-off. All sprayed plants were allowed to air dry prior to further handling. All fungicides were evaluated using the aforementioned method for their activity vs. all target diseases. Wheat leaf blotch and brown rust activity were also evaluated using track spray applications, in which case the fungicides were formulated as EC formulations, containing 0.1% Trycol 5941 in the spray solutions. Wheat plants (variety Yuma) were grown from seed in a greenhouse in 50% mineral soil/50% soil-less Metro mix until the first leaf was fully emerged, with 7-10 seedlings per pot. These plants were inoculated with an aqueous spore suspension of Septoria tritici either prior to or after fungicide treatments. After inoculation the plants were kept in 100% relative humidity (one day in a dark dew chamber followed by two to three days in a lighted dew chamber at 20° C.) to permit spores to germinate and infect the leaf. The plants were then transferred to a greenhouse set at 20° C. for disease to develop. When disease symptoms were fully expressed on the 1st leaves of untreated plants, infection levels were assessed on a scale of 0 to 100 percent disease severity. Percent disease control was calculated using the ratio of disease severity on treated plants relative to untreated plants. Evaluation of Fungicidal Activity: Apple Scab (Venturia inaequalis; Bayer code […]) Apple seedlings (variety McIntosh) were grown in soil-less Metro mix, with one plant per pot. Seedlings with two expanding young leaves at the top (older leaves at bottom of the plants were trimmed) were used in the test. Plants were inoculated with a spore suspension of Venturia inaequalis 24 hr after fungicide treatment and kept in a 22° C. dew chamber with 100% RH for 48 hr, and then moved to a greenhouse set at 20° C. for disease to develop. Fungicide formulation, application and disease assessment on the sprayed leaves followed the procedures as described in the Example A.

[1] = test system: Blumeria graminis f. sp. tritici; assay: Wheat Powdery Mildew fungicidal activity (ERYSGT); assay type: in vivo; details: 100 ppm, 1 Day Protectant
Description: Technical grades of materials were dissolved in acetone, which were then mixed with nine volumes of water containing 110 ppm Triton X-100. The fungicide solutions were applied onto wheat seedlings using an automated booth sprayer to run-off. All sprayed plants were allowed to air dry prior to further handling. All fungicides were evaluated using the aforementioned method for their activity vs. all target diseases. Wheat leaf blotch and brown rust activity were also evaluated using track spray applications, in which case the fungicides were formulated as EC formulations, containing 0.1% Trycol 5941 in the spray solutions. Wheat plants (variety Yuma) were grown from seed in a greenhouse in 50% mineral soil/50% soil-less Metro mix until the first leaf was fully emerged, with 7-10 seedlings per pot. These plants were inoculated with an aqueous spore suspension of Septoria tritici either prior to or after fungicide treatments. After inoculation the plants were kept in 100% relative humidity (one day in a dark dew chamber followed by two to three days in a lighted dew chamber at 20° C.) to permit spores to germinate and infect the leaf. The plants were then transferred to a greenhouse set at 20° C. for disease to develop. When disease symptoms were fully expressed on the 1st leaves of untreated plants, infection levels were assessed on a scale of 0 to 100 percent disease severity. Percent disease control was calculated using the ratio of disease severity on treated plants relative to untreated plants. Evaluation of Fungicidal Activity: Wheat Powdery Mildew (Blumeria graminis f. sp. tritici; Synonym: Erysiphe graminis f. sp. tritici; Bayer Code […]) Wheat plants (variety Yuma) were grown from seed in a greenhouse in 50% mineral soil/50% soil-less Metro mix until the first leaf was fully emerged, with 7-10 seedlings per pot. These plants were inoculated by dusting with infected stock plants 24 hr after fungicide treatments. After inoculation the plants were kept in a greenhouse set at 20° C. for disease to develop. […]

Phakopsora pachyrhizi = assay: Asian Soybean Rust fungicidal activity (PHAKPA); assay type: in vivo; details: 25 ppm; for Disease Control PHAKPA 1DP: 1 Day Protectant; for Disease Control PHAKPA 3DC: 3 Day Curative
Description: Evaluation of Fungicidal Activity: Asian Soybean Rust (Phakopsora pachyrhizi; Bayer Code PHAKPA)
Technical grades of materials were dissolved in acetone, which were then mixed with nine volumes of water containing 0.011% Tween 20. The fungicide solutions were applied onto soybean seedlings using an automated booth sprayer to run-off. All sprayed plants were allowed to air dry prior to further handling.
Soybean plants (variety Williams 82) were grown in soil-less Metro mix, with one plant per pot. Two weeks old seedlings were used for testing. Plants were inoculated either 3 days prior to or 1 day after fungicide treatments. Plants were incubated for 24 h in a dark dew room at 22° C. and 100% RH then transferred to a growth room at 23° C. for disease to develop. Disease severity was assessed on the sprayed leaves.

Row | Structure (SMILES) | pest or weed control at 100 ppm (Uncinula necator) | melting point | Disease Control VENTIN 1DP (Venturia inaequalis) | Disease Control ERYSGT 1DP [1] | Disease Control PHAKPA 1DP (Phakopsora pachyrhizi) | Disease Control PHAKPA 3DC (Phakopsora pachyrhizi)
1 | COc1ccnc(C(=O)N[C@H]2COC[C@H](Cc3ccc(F)cc3)[C@@H](OCC(C)C)[C@H](C)OC2=O)c1OC(C)=O [Compound F60] | 80 to 100% | – | – | – | – | –
2 | COc1ccnc(C(=O)N[C@H]2COC[C@H](Cc3ccc(Cl)cc3Cl)[C@@H](OC(=O)C(C)C)[C@H](C)OC2=O)c1OC(C)=O [Compound F73] | – | 93 to 97 °C | – | – | – | –
3 | COc1ccnc(C(=O)N[C@H]2COC[C@H](Cc3ccc(C)cc3)[C@@H](OCC(C)C)[C@H](C)OC2=O)c1OC(C)=O [Compound F80] | 0 to 80% | – | B (More than 0-Less than 80) | A (80-100) | – | –
4 | COc1ccnc(C(=O)N[C@H]2COC[C@H](Cc3cccc4ccccc34)[C@@H](OC(=O)C(C)C)[C@H](C)OC2=O)c1OCOC(C)=O [Compound F83, (3S,6S,7R,8S)-3-(3-(acetoxymethoxy)-4-methoxypicolin-amido)-6-methyl-8-(naphthalen-1-ylmethyl)-4-oxo-1,5-dioxonan-7-yl isobutyrate] | 0 to 80% | 58 to 64 °C | A (80-100) | – | – | –
5 | COc1ccnc(C(=O)N[C@H]2COC[C@H](Cc3ccc(F)cc3)[C@@H](OCC(C)C)[C@H](C)OC2=O)c1OCOC(C)=O [Compound F96] | 80 to 100% | – | – | A (80-100) | – | –
6 | COc1ccnc(C(=O)N[C@H]2COC[C@H](CCC(C)C)[C@@H](OCCCC(F)(F)F)[C@H](C)OC2=O)c1OCOC(C)=O [Compound F107] | 0 to 80% | – | – | – | A (80-100) | B (More than 0-Less than 80)
7 | COc1ccnc(C(=O)N[C@H]2COC[C@H](CCC(C)C)[C@@H](OC(=O)C3CC3)[C@H](C)OC2=O)c1OCOC(C)=O [Compound F108] | 80 to 100% | – | – | – | A (80-100) | A (80-100)
8 | COc1ccnc(C(=O)N[C@H]2COC[C@H](Cc3ccc(Cl)cc3Cl)[C@@H](OC(=O)C(C)C)[C@H](C)OC2=O)c1OCOC(C)=O [Compound F110] | – | 62 to 66 °C | – | – | – | –
9 | COc1ccnc(C(=O)N[C@H]2COC[C@H](CC3CCCC3)[C@@H](OC(=O)C(C)C)[C@H](C)OC2=O)c1OCOC(C)=O [Compound F114] | 80 to 100% | 41 to 45 °C | A (80-100) | – | A (80-100) | B (More than 0-Less than 80)
10 | COc1ccnc(C(=O)N[C@H]2COC[C@H](Cc3ccc(C)cc3)[C@@H](OCC(C)C)[C@H](C)OC2=O)c1OCOC(C)=O [Compound F117] | 80 to 100% | – | A (80-100) | A (80-100) | – | –
11 | CCCCCO[C@@H]1[C@@H](Cc2ccc(Cl)cc2Cl)COC[C@H](NC(=O)c2nccc(OC)c2OCOC(=O)COCC)C(=O)O[C@H]1C [Compound F122] | 80 to 100% | – | A (80-100) | – | B (More than 0-Less than 80) | –
12 | CCCCCO[C@@H]1[C@@H](Cc2ccc(Cl)cc2Cl)COC[C@H](NC(=O)c2nccc(OC)c2OC(=O)CCOC)C(=O)O[C@H]1C [Compound F123] | 80 to 100% | 96 to 99 °C | B (More than 0-Less than 80) | – | B (More than 0-Less than 80) | –
